For data set [1] the following is noted: cited from earlier work.
The test system of data set [2] is isolate 1, S. aureus isolated from a pacemaker, biofilm. In words: Confocal microscopic images with LIVE/DEAD staining, isolate 1. It counts as cell-based. The note with it: 24 h biofilm, 24 h treatment, ciprofloxacin 1 mg/L, FIGS. 4 and 5. The method, then:
For isolate 1 (S. aureus isolated from a pacemaker on which a biofilm developed in the human body after implantation), confocal images were taken and correspond to FIGS. 3 to 5.
Before obtaining the different images, staining was carried out with the LIVE/DEAD kit (Invitrogen) for 30 minutes before rinsing with a PBS buffer.

The subject of data set [3] is isolate 1, S. aureus MRSA strain 80124430375 (pacemaker), biofilm. As to conditions: static model, 24 h biofilm, 24 h treatment, ciprofloxacin 0.15 to 40 mg/L.
Protocol: (§1) The measurement was conventionally carried out by absorption photometry (measurement at 590 nm with the Spectramax M4 equipment).
(§2) From each of the isolates given in table 1, biofilms (n=4) were developed over 24 hours at a temperature of 37° C. in the wells of a 96-well plate containing 200 μL of a TSB culture medium (Tryptic Soy Broth VWR) supplemented with 1% glucose and 2% sodium chloride.
(§3) Before proceeding with the measurement of the viability of the bacterial cells with resazurin, the plates containing the developed biofilms were washed with a PBS buffer (pH=7.4) then incubated with resazurin (0.01 mg/L) for 1 hour in the dark.
Data set [4] relates to isolate 2, S. aureus MRSA strain 80224422456 (knee prosthesis), biofilm. The note with it: static model, 24 h biofilm, 24 h treatment, ciprofloxacin 0.15 to 40 mg/L.
Protocol: as §1, §2, §3
For data set [5], the system named is isolate 3, S. aureus MRSA strain 80124474762 (knee screw), biofilm. As to conditions: static model, 24 h biofilm, 24 h treatment, ciprofloxacin 0.15 to 40 mg/L.
Protocol: as §1, §2, §3
Data set [6] has as its system isolate 4, S. epidermis strain 80224420266 (central venous catheter), biofilm. The note with it: static model, 24 h biofilm, 24 h treatment, ciprofloxacin 0.15 to 40 mg/L.
Protocol: as §1, §2, §3
The test system of data set [7] is isolate 5, E. coli strain 6081 (urinary catheter), biofilm. As to conditions: static model, 24 h biofilm, 24 h treatment, ciprofloxacin 0.15 to 40 mg/L.
Protocol: as §1, §2, §3
Data set [8] concerns isolate 6, E. coli strain 5701 (orthopaedic implant), biofilm. The note with it: static model, 24 h biofilm, 24 h treatment, ciprofloxacin 0.15 to 40 mg/L.
Protocol: as §1, §2, §3
In data set [9] the test system is isolate 7, E. faecalis strain 9794 (urinary catheter), biofilm. As to conditions: static model, 24 h biofilm, 24 h treatment, ciprofloxacin 0.15 to 40 mg/L.
Protocol: as §1, §2, §3
Data set [10] concerns isolate 8, E. faecalis strain 9781 (urinary catheter), biofilm. As to conditions: static model, 24 h biofilm, 24 h treatment, ciprofloxacin 0.15 to 40 mg/L.
Protocol: as §1, §2, §3
For data set [11], the system named is isolate 9, E. faecalis strain 9555 (urinary catheter), biofilm. As to conditions: static model, 24 h biofilm, 24 h treatment, ciprofloxacin 0.15 to 40 mg/L.
Protocol: as §1, §2, §3
Data set [12] concerns isolate 10, P. aeroginosa strain DIV5508 (central venous catheter), biofilm. As to conditions: static model, 24 h biofilm, 24 h treatment, ciprofloxacin 0.15 to 40 mg/L.
Protocol: as §1, §2, §3
In data set [13] the test system is isolate 11, P. aeroginosa strain 04/190 (urinary catheter), biofilm. The note with it: static model, 24 h biofilm, 24 h treatment, ciprofloxacin 0.15 to 40 mg/L.
Protocol: as §1, §2, §3
Data set [14] concerns isolate 1, S. aureus isolated from a pacemaker, biofilm. As to conditions: dynamic model, 48 h biofilm on PEG protrusions, 24 h treatment, agitation 120 RPM.
Protocol: (§4) In order to judge the effectiveness of a post-implantation treatment carried out with a composition according to the invention, the viability of the bacteria was measured by following the development of the colour of the resazurin (7-Hydroxy-3H-phenoxazin-3-on 10-oxide), this colour changing according to the redox potential which depends on microbial activity. The measurement was conventionally carried out by absorption photometry (measurement at 590 nm with the Spectramax M4 equipment).
(§5) Before proceeding with the measurement of the viability of the bacterial cells with resazurin, the PEG plates with the protrusions containing the developed biofilms were incubated with resazurin for 2 hours in the dark.
Data set [15] has as its system isolate 5, E. coli isolated from a urinary catheter, biofilm. The note with it: dynamic model, 48 h biofilm on PEG protrusions, 24 h treatment, agitation 120 RPM.
Protocol: as §4, §5
Setting [16] is: serum, after administration of the antibiotic, based on EUCAST, used as test concentration.

Where two headings read alike, the source gives them in different places. Marks after values point to notes of the source that are not given here. Where only a bound is given, the exact number is not on record here.

For `NCC[C@H](O)C(=O)N[C@@H]1C[C@H](N)[C@@H](O[C@H]2O[C@H](CN)[C@@H](O)[C@H](O)[C@H]2O)[C@H](O)[C@H]1O[C@H]1O[C@H](CO)[C@@H](O)[C@H](N)[C@H]1O` [amikacin], in [1] (in vivo), the “Cmin, minimum serum concentration” value is 5000 ng/mL. Also, the “Cmax, maximum serum concentration after administration of the antibiotic” value (shortened to “Cmax, maximum serum concentration”) in [1] (setting [16]) was 24000 ng/mL.
Take `C[C@@H](O)[C@H]1C(=O)N2C(C(=O)O)=C(S[C@@H]3CN[C@H](C(=O)N(C)C)C3)[C@H](C)[C@H]12` [meropenem]: the “Cmin, minimum serum concentration” value in [1] (in vivo) was 100 ng/mL. In addition, in data set [1] (setting [16]), the “Cmax, maximum serum concentration” value was 20000 ng/mL.
Regarding `COc1c(N2C[C@@H]3CCCN[C@@H]3C2)c(F)cc2c(=O)c(C(=O)O)cn(C3CC3)c12` [moxifloxacin], in data set [1] (setting [16]), the “Cmax, maximum serum concentration” value was 3600 ng/mL and the “Cmin, minimum serum concentration” value is 300 ng/mL.
Regarding `O=C(O)c1cn(C2CC2)c2cc(N3CCNCC3)c(F)cc2c1=O` [solution A, ciprofloxacin], the “live/dead state of the bacteria in confocal images” value in [2] is “numerous bacteria are still alive”. The “Concentration of the antibiotic molecule in a solution comprising the antibiotic alone (solution A) to reduce the viability of the bacteria by 50% (EC50)” value in [3] is >40^a mg/L; in data set [4], 0.8 µg/mL; in data set [5] it was 1.2 µg/mL; in data set [6], 1.77 µg/mL; in data set [7] it was 2.7 µg/mL; in [8], >40 µg/mL. The “Concentration of the antibiotic molecule in a solution comprising the antibiotic alone (solution A) to reduce the viability of the bacteria by 50% (EC50)” value in data set [9] is >40 µg/mL; in data set [10], >40 µg/mL; in [11], >40 µg/mL; in data set [12] it was >40 µg/mL; in data set [13], >40 µg/mL; in [14], 0.7 µg/mL. Besides, the “Concentration of the antibiotic molecule in a solution comprising the antibiotic alone (solution A) to reduce the viability of the bacteria by 50% (EC50)” value in [15] worked out at 3.18 µg/mL. The “Cmin, minimum serum concentration” value in [1] (setting [16]) is 600 ng/mL.
On to `NC[C@H]1O[C@H](O[C@H]2[C@H](O)[C@@H](O[C@H]3O[C@H](CO)[C@@H](O)[C@H](N)[C@H]3O)[C@H](N)C[C@@H]2N)[C@H](N)C[C@@H]1O` [tobramycin], for which the “Cmin, minimum serum concentration” value in data set [1] (in vivo) is 900 ng/mL. For the same compound, the “Cmax, maximum serum concentration” value in [1] (setting [16]) was 4000 ng/mL.
